ChEMBL document CHEMBL5316268 (J Med Chem, 2023)
Active and inactive are the calls of the source. The rule behind the calls is not given here.

Legend:
[1] = Tmax in CD rat at 200 mg/kg, po measured for 24 hrs by LC-MS/MS analysis; format: ADME, organism-based; settings: in vivo
[2] = test system: CD8-positive T cell; experiment: Reversal of AMP-mediated suppression of human CD8-positive T cell proliferation at 0.01 to 1000 nM measured after 4 days by flow cytometry; format: functional, cell-based; settings: dose 0.01-1000 nM, time 4.0 day
[3] = test system: EG7; experiment: Antiproliferative activity against mouse EG7 cells at 100 uM incubated for 3 days by Cell Titer-Glo assay; format: functional, cell-based; settings: time 3.0 day
[4] = target: T1, 5'-nucleotidase (Homo sapiens, UniProt P21589); experiment: Inhibition of CD73 in human plasma derived from TNBC cancer patient incubated for 15 mins in presence of 15N5-AMP by LC/MS analysis; format: cell-free
T1 sequence (P21589 whole entry): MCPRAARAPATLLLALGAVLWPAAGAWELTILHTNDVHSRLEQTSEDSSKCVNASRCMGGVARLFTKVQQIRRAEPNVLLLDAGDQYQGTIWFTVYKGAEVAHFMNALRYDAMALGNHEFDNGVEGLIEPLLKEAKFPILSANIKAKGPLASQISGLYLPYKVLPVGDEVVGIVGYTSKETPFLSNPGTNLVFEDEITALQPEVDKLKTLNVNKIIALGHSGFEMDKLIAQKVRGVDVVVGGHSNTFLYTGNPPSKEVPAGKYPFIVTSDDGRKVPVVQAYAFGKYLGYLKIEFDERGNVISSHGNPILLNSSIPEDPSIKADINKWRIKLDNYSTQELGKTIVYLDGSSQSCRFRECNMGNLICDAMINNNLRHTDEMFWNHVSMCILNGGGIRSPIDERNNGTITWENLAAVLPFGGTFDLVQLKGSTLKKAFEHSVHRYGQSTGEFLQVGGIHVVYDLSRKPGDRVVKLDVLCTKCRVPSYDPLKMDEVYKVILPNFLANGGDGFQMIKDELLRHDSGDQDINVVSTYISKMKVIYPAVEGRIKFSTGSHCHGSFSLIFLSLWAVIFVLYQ

[5] = In vivo inhibition of plasma CD73 in mouse xenografted with mouse EG7 cells at 50 mg/kg, po bid administered for 20 days and measured after 2 hrs post last dose in presence of 15N5-AMP and TNAP inhibitor by LC/MS analysis relative to control; format: functional; settings: EG7, 480 h, time 20 day
[6] = Cmax in CD rat at 200 mg/kg, po measured for 24 hrs by LC-MS/MS analysis; format: ADME, organism-based; set-up: time 24 hrs, dose 200 mg/kg, route po; settings: in vivo
[7] = Drug concentration in mouse plasma at 50 mg/kg, po administered as single dose measured after 24 hrs by LC/MS analysis; format: ADME, organism-based
[8] = test system: EG7; experiment: Antitumor activity against mouse EG7 cells implanted in C57BL/6 mouse assessed as reduction in tumor volume at 100 mg/kg, po bid administered for 23 days in presence of oxaliplatin; format: functional, organism-based; settings: time 23.0 day
[9] = test system: CD8-positive T cell; experiment: Reversal of AMP-mediated suppression of human CD8-positive T cells function assessed as increase in CD25 expression at 0.01 to 1000 nM measured after 4 days by flow cytometry; format: functional, cell-based; settings: dose 0.01-1000 nM, time 4.0 day
[10] = test system: EG7; experiment: Antitumor activity against mouse EG7 cells implanted in C57BL/6 mouse assessed as reduction in tumor volume at 100 mg/kg, po bid administered for 21 days in presence of anti-PD-L1 antibody; format: functional, organism-based; settings: time 21.0 day
[11] = test system: A-375; experiment: Antiproliferative activity against human A-375 cells at 100 uM incubated for 3 days by Cell Titer-Glo assay; format: functional, cell-based; settings: time 3.0 day
[12] = Plasma protein binding in human at 10 uM assessed as bound fraction; format: ADME, cell-free; settings: read-out: PPB (converted)
[13] = AUC (0 to 24 hrs) in CD rat at 50 mg/kg, po measured for 24 hrs by LC-MS/MS analysis; format: ADME, organism-based; set-up: time 24 hrs, dose 50 mg/kg, route po; settings: in vivo
[14] = Plasma protein binding in dog at 10 uM assessed as bound fraction; format: ADME, cell-free, Canis lupus familiaris; settings: read-out: PPB (converted)
[15] = Plasma protein binding in monkey at 10 uM assessed as bound fraction; format: ADME, cell-free, Macaca mulatta; settings: rhesus monkey, read-out: PPB (converted)
[16] = target: Cytochrome P450 2D6 (Homo sapiens, UniProt P10635); experiment: Inhibition of human CYP2D6 at 10 uM; format: ADME
Chain of Cytochrome P450 2D6 (P10635 whole entry): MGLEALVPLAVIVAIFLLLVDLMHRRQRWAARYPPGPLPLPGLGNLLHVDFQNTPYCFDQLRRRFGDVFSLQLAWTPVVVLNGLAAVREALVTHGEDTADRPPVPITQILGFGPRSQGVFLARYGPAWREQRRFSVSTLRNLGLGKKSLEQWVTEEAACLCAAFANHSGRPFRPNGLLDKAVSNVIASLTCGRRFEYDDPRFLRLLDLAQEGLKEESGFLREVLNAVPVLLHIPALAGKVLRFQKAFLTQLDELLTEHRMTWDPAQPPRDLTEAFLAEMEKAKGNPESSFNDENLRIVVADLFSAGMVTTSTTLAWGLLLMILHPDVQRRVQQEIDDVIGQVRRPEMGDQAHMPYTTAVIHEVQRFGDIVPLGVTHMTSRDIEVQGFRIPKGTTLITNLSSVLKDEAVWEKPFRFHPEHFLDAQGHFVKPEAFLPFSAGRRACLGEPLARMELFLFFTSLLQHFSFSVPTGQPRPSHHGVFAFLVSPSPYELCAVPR

[17] = test system: EG7; experiment: Antitumor activity against mouse EG7 cells implanted in C57BL/6 mouse assessed as activation of tumor-directed immune response by measuring increase in tumor-infiltrating CD8 positive cells at 50 mg/kg, po bid measured after 14 days by flow cytometry; format: functional, organism-based; settings: time 14.0 day
[18] = target: Cytochrome P450 3A4 (Homo sapiens, UniProt P08684); experiment: Inhibition of human CYP3A4 at 10 uM; format: ADME
Chain of Cytochrome P450 3A4 (P08684 whole entry): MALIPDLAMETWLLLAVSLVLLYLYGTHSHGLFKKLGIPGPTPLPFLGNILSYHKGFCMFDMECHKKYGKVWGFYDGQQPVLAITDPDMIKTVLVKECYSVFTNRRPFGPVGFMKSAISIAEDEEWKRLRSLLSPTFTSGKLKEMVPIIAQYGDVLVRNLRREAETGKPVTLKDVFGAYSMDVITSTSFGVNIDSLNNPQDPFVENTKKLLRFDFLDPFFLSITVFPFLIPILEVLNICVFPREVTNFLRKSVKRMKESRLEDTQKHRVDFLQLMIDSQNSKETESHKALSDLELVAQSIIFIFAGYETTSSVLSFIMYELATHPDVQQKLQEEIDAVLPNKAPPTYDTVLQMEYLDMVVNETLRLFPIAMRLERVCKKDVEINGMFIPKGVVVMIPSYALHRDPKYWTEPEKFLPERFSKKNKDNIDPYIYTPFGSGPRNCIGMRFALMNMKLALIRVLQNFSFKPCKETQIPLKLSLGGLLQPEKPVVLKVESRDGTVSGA

[19] = Plasma protein binding in mouse at 10 uM assessed as bound fraction; format: ADME, cell-free; settings: read-out: PPB (converted)
[20] = Cmax in CD rat at 500 mg/kg, po measured for 24 hrs by LC-MS/MS analysis; format: ADME, organism-based; set-up: dose 500 mg/kg, time 24 hrs, route po; settings: in vivo
[21] = target: Cytochrome P450 2C19 (Homo sapiens, UniProt P33261); experiment: Inhibition of human CYP2C19 at 10 uM; format: ADME
Chain of Cytochrome P450 2C19 (P33261 whole entry): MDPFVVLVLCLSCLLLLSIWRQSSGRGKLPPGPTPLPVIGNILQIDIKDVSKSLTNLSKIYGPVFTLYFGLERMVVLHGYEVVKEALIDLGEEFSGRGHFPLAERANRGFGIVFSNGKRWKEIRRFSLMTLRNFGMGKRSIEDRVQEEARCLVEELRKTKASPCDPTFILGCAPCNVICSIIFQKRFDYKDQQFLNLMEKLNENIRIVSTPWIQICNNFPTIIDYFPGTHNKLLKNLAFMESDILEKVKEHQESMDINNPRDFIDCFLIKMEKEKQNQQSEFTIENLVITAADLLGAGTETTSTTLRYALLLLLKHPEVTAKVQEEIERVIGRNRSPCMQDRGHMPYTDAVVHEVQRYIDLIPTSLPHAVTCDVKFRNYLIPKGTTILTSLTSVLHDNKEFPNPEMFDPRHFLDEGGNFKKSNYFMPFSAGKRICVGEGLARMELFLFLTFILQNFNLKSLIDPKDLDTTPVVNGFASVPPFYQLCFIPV

[22] = target: T1, 5'-nucleotidase; experiment: Competitive inhibition of cell surface anchored CD73 (unknown origin) expressed in human SK-MEL-28 cells assessed as inhibition constant incubated for 30 mins by malachite green assay; format: cell-based
[23] = target: T1, 5'-nucleotidase; experiment: Inhibition of CD73 in human plasma derived from ovarian cancer patient incubated for 15 mins in presence of 15N5-AMP by LC/MS analysis; format: cell-free
[24] = Cytotoxicity against human CD8-positive T cells at 100 uM incubated for 4 days by Cell Titer-Glo assay; format: toxicity, cell-based; settings: 96 h, time 4 day
[25] = test system: EG7; experiment: Antitumor activity against mouse EG7 cells implanted in C57BL/6 mouse assessed as reduction in tumor volume at 10 to 50 mg/kg, po bid administered for 20 days; format: functional, organism-based; settings: dose 10-50 mg/kg, time 20.0 day
[26] = Drug concentration in tumor of mouse implanted with mouse EG7 cells at 10 to 50 mg/kg, po bid administered for 20 days and measured after 16 hrs post-last dose by LC/MS analysis; format: ADME, organism-based, Neoplasm; settings: dose 10-50 mg/kg, time 20 day, read-out: Ct
[27] = test system: EG7; experiment: Antitumor activity against mouse EG7 cells implanted in C57BL/6 mouse assessed as reduction in tumor volume at 50 mg/kg, po bid administered for 19 days in presence of doxorubicin; format: functional, organism-based; settings: time 19.0 day
[28] = target: T1, 5'-nucleotidase; experiment: Competitive inhibition of soluble C-terminal 6His-tagged recombinant human CD73 (27 to 547 residues) expressed in CHO cells assessed as inhibition constant incubated for 1 hr by malachite green based spectrophotometer assay; format: cell-based
[29] = test system: CD8-positive T cell; experiment: Reversal of AMP-mediated suppression of human CD8-positive T cells function assessed as increase in granzyme B level at 0.01 to 1000 nM measured after 4 days by ELISA; format: functional, cell-based; settings: dose 0.01-1000 nM, time 4.0 day
[30] = Selectivity ratio of IC50 for CD73 in human plasma to IC50 for C-terminal 6His-tagged recombinant human CD73 (27 to 547 residues) expressed in CHO cells; format: cell-based
[31] = target: T2, 5'-nucleotidase (Mus musculus, UniProt Q61503); experiment: Inhibition of C-terminal 6His-tagged recombinant mouse CD73 (29 to 549 residues) expressed in CHO cells incubated for 1 hr by malachite green assay; format: cell-based
T2 sequence (Q61503 whole entry): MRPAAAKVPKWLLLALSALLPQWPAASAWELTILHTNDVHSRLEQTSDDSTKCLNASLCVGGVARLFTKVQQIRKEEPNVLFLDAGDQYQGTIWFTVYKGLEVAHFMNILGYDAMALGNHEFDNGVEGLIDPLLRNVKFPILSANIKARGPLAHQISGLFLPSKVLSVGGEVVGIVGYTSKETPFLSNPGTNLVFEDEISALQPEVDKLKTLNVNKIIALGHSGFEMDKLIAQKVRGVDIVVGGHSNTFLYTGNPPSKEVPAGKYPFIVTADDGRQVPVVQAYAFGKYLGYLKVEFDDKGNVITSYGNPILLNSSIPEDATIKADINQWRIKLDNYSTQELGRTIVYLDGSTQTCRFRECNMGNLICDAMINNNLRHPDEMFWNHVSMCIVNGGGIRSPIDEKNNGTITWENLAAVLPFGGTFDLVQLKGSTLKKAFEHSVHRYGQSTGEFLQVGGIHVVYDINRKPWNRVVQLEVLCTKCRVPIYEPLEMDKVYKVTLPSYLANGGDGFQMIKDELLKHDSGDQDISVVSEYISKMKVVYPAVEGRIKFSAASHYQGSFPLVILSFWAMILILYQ

[32] = Tmax in CD rat at 50 mg/kg, po measured for 24 hrs by LC-MS/MS analysis; format: ADME, organism-based; settings: in vivo

With `C#C[C@@]1(O)[C@@H](COC(Cc2ccc(N3CCCNC3=O)cc2)(C(=O)O)C(=O)O)O[C@@H](n2cnc3c(N)nc(Cl)nc32)[C@@H]1O` the Tmax [1] was 48 min, the Activity [2] was “Active” and the Activity [3] was “inactive”. The IC50 [4] was 0.18 nM, the inhibition in vivo at 50 mg/kg [5] was 92% and the Cmax [6] was 1800 nM. For the same compound, the concentration at 24 h [7] was > 1 nM, the Activity [8] was “Active” and the Activity [9] was “Active”. For the same compound, the Activity [10] was “Active”, the Activity [11] was “inactive” and the fraction unbound at 10 µM [12] was 0.42. It also gave an AUC [13] of 580 ng·h/mL, a fraction unbound at 10 µM [14] of 0.58 and a fraction unbound at 10 µM [15] of 0.4. For the same compound, the “inhibition (INH)” value [16] was “Not Active”, the Activity [17] was “Active” and the “inhibition (INH)” value [18] was “Not Active”. For the same compound, the fraction unbound at 10 µM [19] was 0.37, the Cmax [20] was 11 µM and the “inhibition (INH)” value [21] was “Not Active”. For the same compound, the Ki [22] was 0.11 nM, the IC50 [23] was 0.15 nM and the Activity [24] was “Non-Toxic”. For the same compound, the Activity [25] was “Active”, the concentration at 480 h [26] was > 3 nM and the Activity [27] was “Active”. For the same compound, the Ki [28] was 0.038 nM, the Activity [29] was “Active” and the Ratio IC50 [30] was 2.2. For the same compound, the IC50 [31] was 1.3 nM and the Tmax [32] was 48 min.
